{"source": "patent US12479847B2", "about": "(DANA-FARBER CANCER INSTITUTE, INC., priority 2019, dated 2025)", "assay_in_all_cases": "KINOMEscan (ScanMAX) kinase profiling", "type_in_all_cases": "binding", "key": {"[1]": {"molecular_target": "T1, panel of 468 kinases (Homo sapiens, UniProt O60285)", "T1 construct": "purchased KINOMEscan (ScanMAX) service", "T1 sequence (O60285 1-661)": "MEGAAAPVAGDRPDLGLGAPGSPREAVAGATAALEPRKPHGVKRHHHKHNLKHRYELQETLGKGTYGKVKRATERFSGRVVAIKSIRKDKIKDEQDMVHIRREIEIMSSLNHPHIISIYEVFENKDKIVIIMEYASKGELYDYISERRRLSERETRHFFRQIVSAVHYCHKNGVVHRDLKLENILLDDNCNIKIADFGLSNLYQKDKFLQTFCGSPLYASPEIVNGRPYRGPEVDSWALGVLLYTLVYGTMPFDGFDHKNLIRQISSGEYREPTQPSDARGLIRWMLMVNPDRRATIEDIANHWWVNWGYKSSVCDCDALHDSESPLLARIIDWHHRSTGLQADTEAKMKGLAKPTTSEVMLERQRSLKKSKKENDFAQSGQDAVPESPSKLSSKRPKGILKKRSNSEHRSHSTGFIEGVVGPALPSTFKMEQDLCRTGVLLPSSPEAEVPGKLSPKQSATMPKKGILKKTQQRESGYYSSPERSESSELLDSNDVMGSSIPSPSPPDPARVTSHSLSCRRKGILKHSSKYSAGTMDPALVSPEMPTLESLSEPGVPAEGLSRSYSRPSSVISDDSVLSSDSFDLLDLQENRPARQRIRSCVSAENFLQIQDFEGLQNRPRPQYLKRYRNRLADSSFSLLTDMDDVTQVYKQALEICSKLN", "conditions": "ARKS; 1 μM; read-out: % control"}, "[2]": {"molecular_target": "T2, panel of 468 kinases (Homo sapiens, UniProt P00519, T315I)", "T2 construct": "purchased KINOMEscan (ScanMAX) service", "conditions": "1 μM, read-out: % control"}, "[3]": {"molecular_target": "T3, panel of 468 kinases (Homo sapiens, UniProt P36888, N841I)", "T3 construct": "purchased KINOMEscan (ScanMAX) service", "T3 sequence (P36888 27-993 N841I)": "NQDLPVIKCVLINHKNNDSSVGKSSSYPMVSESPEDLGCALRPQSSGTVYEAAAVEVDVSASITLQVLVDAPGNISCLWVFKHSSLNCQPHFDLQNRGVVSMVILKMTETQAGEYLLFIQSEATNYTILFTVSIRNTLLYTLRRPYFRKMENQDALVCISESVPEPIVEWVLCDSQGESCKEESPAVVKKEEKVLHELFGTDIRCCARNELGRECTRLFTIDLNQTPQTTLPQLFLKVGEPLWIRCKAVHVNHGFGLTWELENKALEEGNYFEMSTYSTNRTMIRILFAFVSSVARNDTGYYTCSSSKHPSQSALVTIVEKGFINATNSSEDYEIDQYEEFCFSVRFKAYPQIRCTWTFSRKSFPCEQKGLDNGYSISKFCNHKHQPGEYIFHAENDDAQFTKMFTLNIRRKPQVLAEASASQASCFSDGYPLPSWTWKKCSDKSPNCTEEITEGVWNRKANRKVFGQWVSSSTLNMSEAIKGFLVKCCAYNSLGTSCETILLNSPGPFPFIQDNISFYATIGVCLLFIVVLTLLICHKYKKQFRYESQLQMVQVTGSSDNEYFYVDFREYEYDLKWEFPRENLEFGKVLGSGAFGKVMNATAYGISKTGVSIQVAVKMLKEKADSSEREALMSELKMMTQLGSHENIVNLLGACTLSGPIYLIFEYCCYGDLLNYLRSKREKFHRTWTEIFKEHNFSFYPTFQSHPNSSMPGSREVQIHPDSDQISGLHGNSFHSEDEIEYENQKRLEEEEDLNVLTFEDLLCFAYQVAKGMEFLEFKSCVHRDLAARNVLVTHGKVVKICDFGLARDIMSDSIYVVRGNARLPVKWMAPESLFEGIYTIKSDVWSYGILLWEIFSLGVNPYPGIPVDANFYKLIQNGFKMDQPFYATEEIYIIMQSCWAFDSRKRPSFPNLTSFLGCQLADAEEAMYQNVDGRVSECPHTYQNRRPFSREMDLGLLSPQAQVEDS", "conditions": "FLT3(N841I); 1 μM; read-out: % control"}, "[4]": {"molecular_target": "T4, panel of 468 kinases (Homo sapiens, UniProt P45983)", "T4 construct": "purchased KINOMEscan (ScanMAX) service", "T4 sequence (P45983 whole entry)": "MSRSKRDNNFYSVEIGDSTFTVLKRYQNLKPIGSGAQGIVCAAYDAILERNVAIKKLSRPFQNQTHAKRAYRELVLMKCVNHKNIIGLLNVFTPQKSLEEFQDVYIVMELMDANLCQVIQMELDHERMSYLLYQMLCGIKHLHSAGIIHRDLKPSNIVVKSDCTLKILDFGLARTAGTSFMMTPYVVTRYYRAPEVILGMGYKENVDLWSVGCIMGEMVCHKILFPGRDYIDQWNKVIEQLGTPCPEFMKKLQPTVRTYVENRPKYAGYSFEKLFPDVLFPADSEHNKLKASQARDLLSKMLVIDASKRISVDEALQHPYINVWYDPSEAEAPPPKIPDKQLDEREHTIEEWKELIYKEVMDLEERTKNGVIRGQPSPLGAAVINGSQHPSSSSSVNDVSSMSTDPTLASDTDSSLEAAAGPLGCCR", "conditions": "JNK1; 1 μM; read-out: % control"}, "[5]": {"molecular_target": "T5, panel of 468 kinases (Homo sapiens, UniProt P50613)", "T5 construct": "purchased KINOMEscan (ScanMAX) service", "T5 sequence (P50613 whole entry)": "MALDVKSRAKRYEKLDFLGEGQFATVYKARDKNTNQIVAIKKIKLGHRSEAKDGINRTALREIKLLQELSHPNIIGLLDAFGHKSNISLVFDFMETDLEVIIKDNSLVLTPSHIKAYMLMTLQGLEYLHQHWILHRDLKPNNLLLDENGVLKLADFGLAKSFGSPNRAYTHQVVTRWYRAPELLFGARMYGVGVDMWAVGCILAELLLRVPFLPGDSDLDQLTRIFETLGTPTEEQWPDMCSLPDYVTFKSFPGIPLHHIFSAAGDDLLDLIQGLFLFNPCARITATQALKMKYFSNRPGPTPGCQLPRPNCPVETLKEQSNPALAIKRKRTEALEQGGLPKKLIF", "conditions": "CDK7; 1 μM; read-out: % control"}, "[6]": {"molecular_target": "T6, panel of 468 kinases (Homo sapiens, UniProt Q13177)", "T6 construct": "purchased KINOMEscan (ScanMAX) service", "T6 sequence (Q13177 whole entry)": "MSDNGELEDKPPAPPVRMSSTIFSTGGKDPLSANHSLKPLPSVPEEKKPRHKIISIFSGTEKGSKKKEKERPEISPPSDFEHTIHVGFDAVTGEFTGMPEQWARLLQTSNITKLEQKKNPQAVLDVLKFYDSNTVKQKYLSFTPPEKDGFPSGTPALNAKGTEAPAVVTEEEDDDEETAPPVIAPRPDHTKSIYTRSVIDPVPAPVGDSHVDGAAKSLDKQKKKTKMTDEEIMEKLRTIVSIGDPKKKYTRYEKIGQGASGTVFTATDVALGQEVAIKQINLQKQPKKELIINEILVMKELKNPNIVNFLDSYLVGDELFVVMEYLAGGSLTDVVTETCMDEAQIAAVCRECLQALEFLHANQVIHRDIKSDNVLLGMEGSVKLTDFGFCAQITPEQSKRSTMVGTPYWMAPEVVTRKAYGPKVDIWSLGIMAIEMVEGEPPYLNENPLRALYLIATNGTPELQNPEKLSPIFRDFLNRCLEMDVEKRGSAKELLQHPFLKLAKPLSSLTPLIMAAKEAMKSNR", "conditions": "PAK2; 1 μM; read-out: % control"}, "[7]": {"molecular_target": "T7, panel of 468 kinases (Homo sapiens, UniProt Q15349)", "T7 construct": "purchased KINOMEscan (ScanMAX) service", "T7 sequence (Q15349 whole entry)": "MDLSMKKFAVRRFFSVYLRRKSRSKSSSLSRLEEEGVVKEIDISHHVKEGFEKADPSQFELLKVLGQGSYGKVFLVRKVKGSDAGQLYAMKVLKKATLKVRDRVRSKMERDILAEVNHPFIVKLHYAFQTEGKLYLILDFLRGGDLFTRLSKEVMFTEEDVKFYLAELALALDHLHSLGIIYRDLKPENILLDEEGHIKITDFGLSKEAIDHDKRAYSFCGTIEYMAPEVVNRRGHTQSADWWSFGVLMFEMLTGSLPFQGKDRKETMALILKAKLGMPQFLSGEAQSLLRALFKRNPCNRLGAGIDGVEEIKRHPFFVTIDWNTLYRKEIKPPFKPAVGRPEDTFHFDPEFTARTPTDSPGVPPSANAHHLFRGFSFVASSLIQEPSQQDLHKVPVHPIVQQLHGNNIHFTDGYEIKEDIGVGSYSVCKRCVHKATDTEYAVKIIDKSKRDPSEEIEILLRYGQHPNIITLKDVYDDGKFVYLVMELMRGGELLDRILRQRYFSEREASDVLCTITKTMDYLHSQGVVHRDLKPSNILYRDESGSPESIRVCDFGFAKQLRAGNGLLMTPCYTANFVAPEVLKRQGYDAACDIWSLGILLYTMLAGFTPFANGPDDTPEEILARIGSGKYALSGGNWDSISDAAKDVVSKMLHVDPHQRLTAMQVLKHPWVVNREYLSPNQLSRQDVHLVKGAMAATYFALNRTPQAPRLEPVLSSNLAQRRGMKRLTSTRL", "conditions": "1 μM, read-out: % control"}, "[8]": {"molecular_target": "T8, panel of 468 kinases (Homo sapiens, UniProt Q9H0K1)", "T8 construct": "purchased KINOMEscan (ScanMAX) service", "T8 sequence (Q9H0K1 whole entry)": "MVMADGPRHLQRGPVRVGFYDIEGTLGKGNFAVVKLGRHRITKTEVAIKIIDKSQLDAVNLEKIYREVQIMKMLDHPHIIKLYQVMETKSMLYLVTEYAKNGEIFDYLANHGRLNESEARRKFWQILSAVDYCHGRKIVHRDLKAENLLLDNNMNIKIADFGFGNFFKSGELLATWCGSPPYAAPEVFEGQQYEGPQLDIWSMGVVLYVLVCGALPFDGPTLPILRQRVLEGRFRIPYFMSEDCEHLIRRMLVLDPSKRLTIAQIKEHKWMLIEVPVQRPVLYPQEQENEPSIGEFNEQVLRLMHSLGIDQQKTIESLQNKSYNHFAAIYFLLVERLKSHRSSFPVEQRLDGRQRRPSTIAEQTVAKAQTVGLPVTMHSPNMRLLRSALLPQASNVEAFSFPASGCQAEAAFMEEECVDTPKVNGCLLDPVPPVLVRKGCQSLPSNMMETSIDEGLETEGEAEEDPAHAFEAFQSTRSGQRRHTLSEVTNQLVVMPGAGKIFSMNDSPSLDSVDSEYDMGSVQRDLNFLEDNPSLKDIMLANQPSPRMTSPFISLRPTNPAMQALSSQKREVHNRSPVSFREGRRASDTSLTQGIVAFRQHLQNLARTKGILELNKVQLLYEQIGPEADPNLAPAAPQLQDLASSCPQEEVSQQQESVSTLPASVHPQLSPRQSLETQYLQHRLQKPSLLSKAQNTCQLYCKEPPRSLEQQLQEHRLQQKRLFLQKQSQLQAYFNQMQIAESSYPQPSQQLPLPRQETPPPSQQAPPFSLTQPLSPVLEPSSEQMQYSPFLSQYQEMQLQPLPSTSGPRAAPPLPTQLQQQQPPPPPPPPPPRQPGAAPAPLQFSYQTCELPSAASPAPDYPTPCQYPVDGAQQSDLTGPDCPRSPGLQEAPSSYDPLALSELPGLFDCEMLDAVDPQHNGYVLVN", "conditions": "SIK2; 1 μM; read-out: % control"}}, "note": "Where two headings read alike, the source gives them in different places."}
{"smiles": "CNc1nc(Nc2ccc(S(=O)(=O)N3CCC(N4CCOCC4)CC3)cc2OC)nc2[nH]cc(Cl)c12", "note": "[Compound 12, 5-chloro-N2-(2-methoxy-4-((4-morpholinopiperidin-1-yl)sulfonyl)phenyl)-N4-methyl-7H-pyrrolo[2,3-d]pyrimidine-2,4-diamine]", "values": [{"measurement": "remaining binding at 1 µM", "setting": "[1]", "result": 100, "unit": "%"}, {"measurement": "remaining binding at 1 µM", "setting": "[2]; ABL1(T315I)-nonphosphorylated", "result": 94, "unit": "%"}, {"measurement": "remaining binding at 1 µM", "setting": "[2]; ABL1(T315I)-phosphorylated", "result": 100, "unit": "%"}, {"measurement": "remaining binding at 1 µM", "setting": "[3]", "result": 85, "unit": "%"}, {"measurement": "remaining binding at 1 µM", "setting": "[4]", "result": 11, "unit": "%"}, {"measurement": "remaining binding at 1 µM", "setting": "[5]", "result": 98, "unit": "%"}, {"measurement": "remaining binding at 1 µM", "setting": "[6]", "result": 100, "unit": "%"}, {"measurement": "remaining binding at 1 µM", "setting": "[7]; RSK3(Kin.Dom.1-N-terminal)", "result": 100, "unit": "%"}, {"measurement": "remaining binding at 1 µM", "setting": "[7]; RSK3(Kin.Dom.2-C-terminal)", "result": 70, "unit": "%"}, {"measurement": "remaining binding at 1 µM", "setting": "[8]", "result": 100, "unit": "%"}]}
{"smiles": "CNc1nc(Nc2ccc(C(=O)N3CCC(N4CCOCC4)CC3)c3c2OCO3)nc2[nH]cc(Cl)c12", "note": "[Compound 75, (7-((5-chloro-4-(methylamino)-7H-pyrrolo[2,3-d]pyrimidin-2-yl)amino)benzo[d][1,3]dioxol-4-yl)(4-morpholinopiperidin-1-yl)methanone]", "values": [{"measurement": "remaining binding at 1 µM", "setting": "[1]", "result": 23, "unit": "%"}, {"measurement": "remaining binding at 1 µM", "setting": "[2]; ABL1(T315I)-nonphosphorylated", "result": 100, "unit": "%"}, {"measurement": "remaining binding at 1 µM", "setting": "[2]; ABL1(T315I)-phosphorylated", "result": 60, "unit": "%"}, {"measurement": "remaining binding at 1 µM", "setting": "[3]", "result": 65, "unit": "%"}, {"measurement": "remaining binding at 1 µM", "setting": "[4]", "result": 0.1, "unit": "%"}, {"measurement": "remaining binding at 1 µM", "setting": "[5]", "result": 21, "unit": "%"}, {"measurement": "remaining binding at 1 µM", "setting": "[6]", "result": 100, "unit": "%"}, {"measurement": "remaining binding at 1 µM", "setting": "[7]; RSK3(Kin.Dom.1-N-terminal)", "result": 100, "unit": "%"}, {"measurement": "remaining binding at 1 µM", "setting": "[7]; RSK3(Kin.Dom.2-C-terminal)", "result": 57, "unit": "%"}, {"measurement": "remaining binding at 1 µM", "setting": "[8]", "result": 100, "unit": "%"}]}
{"smiles": "CNc1nc(Nc2ccc(P3(=O)CCN(C4CCOCC4)CC3)cc2OC)nc2[nH]cc(Cl)c12", "note": "[Compound 77, 4-(4-((5-chloro-4-(methylamino)-7H-pyrrolo[2,3-d]pyrimidin-2-yl)amino)-3-methoxyphenyl)-1-(tetrahydro-2H-pyran-4-yl)-1,4-azaphosphinane 4-oxide]", "values": [{"measurement": "remaining binding at 1 µM", "setting": "[1]", "result": 96, "unit": "%"}, {"measurement": "remaining binding at 1 µM", "setting": "[2]; ABL1(T315I)-nonphosphorylated", "result": 99, "unit": "%"}, {"measurement": "remaining binding at 1 µM", "setting": "[2]; ABL1(T315I)-phosphorylated", "result": 77, "unit": "%"}, {"measurement": "remaining binding at 1 µM", "setting": "[3]", "result": 99, "unit": "%"}, {"measurement": "remaining binding at 1 µM", "setting": "[4]", "result": 0.65, "unit": "%"}, {"measurement": "remaining binding at 1 µM", "setting": "[5]", "result": 86, "unit": "%"}, {"measurement": "remaining binding at 1 µM", "setting": "[6]", "result": 100, "unit": "%"}, {"measurement": "remaining binding at 1 µM", "setting": "[7]; RSK3(Kin.Dom.1-N-terminal)", "result": 100, "unit": "%"}, {"measurement": "remaining binding at 1 µM", "setting": "[7]; RSK3(Kin.Dom.2-C-terminal)", "result": 20, "unit": "%"}, {"measurement": "remaining binding at 1 µM", "setting": "[8]", "result": 100, "unit": "%"}]}
